This note sets out measurements from PubChem BioAssay (NCI).

Some test systems named below: M14 melanoma; OVCAR-4 ovarian; CAKI-1 renal; SF-268 CNS; HOP-62 NSCLC; SW-620 colon; RPMI-8226 leukemia; K-562 leukemia; UO-31 renal; A549 NSCLC.
Test in all cases: DTP human tumour cell line panel, 48 h

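Interpolation was linear, between the two tested concentrations surrounding the appropriate level; five concentrations were tested over 48 hours in 96-well plates. GI50 marks 50% less growth. TGI is the concentration that stops growth completely.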

What is called TGI is the concentration at which net growth stops. The low end stands for greater sensitivity of the cells, the high end for lower sensitivity of the cells. For the molecule `C[N+](C)(C)c1ncnc2c1ncn2C1CCCCO1` (stereo not drawn), the TGI with M14 melanoma, in the assay with OVCAR-4 ovarian, in the assay with CAKI-1 renal, in the assay with SF-268 CNS, with HOP-62 NSCLC and in the assay with SW-620 colon was more than 100 µM throughout. The TGI with RPMI-8226 leukemia, with K-562 leukemia, in the assay on UO-31 renal and in the assay with A549 NSCLC was more than 100 µM throughout.

For `O=C1c2cccc3cccc(c23)C(=O)N1CCCNOCCONCCCN1C(=O)c2cccc3cccc(c23)C1=O`, the TGI in the assay on M14 melanoma, in the assay on OVCAR-4 ovarian, with CAKI-1 renal, in the assay with SF-268 CNS, in the assay on HOP-62 NSCLC and in the assay on SW-620 colon was more than 100 µM in each case. Also, the TGI with RPMI-8226 leukemia was 74.4 µM; with K-562 leukemia, more than 100 µM; with UO-31 renal it was more than 100 µM; in the assay on A549 NSCLC it was more than 100 µM.

Regarding `Cc1ccc(S(=O)(=O)c2c(O)c3ccccc3n(C)c2=O)cc1`, the TGI with M14 melanoma, in the assay on OVCAR-4 ovarian, with CAKI-1 renal, in the assay on SF-268 CNS, with HOP-62 NSCLC and in the assay with SW-620 colon was more than 100 µM in each case. The TGI in the assay with RPMI-8226 leukemia, in the assay on K-562 leukemia, with UO-31 renal and in the assay with A549 NSCLC was more than 100 µM each time.

On to `C[n+]1c2ccccc2c(C(=O)Nc2ccc(S(=O)(=O)N=C(N)N)cc2)c2ccccc21`, for which the TGI in the assay on M14 melanoma, in the assay with OVCAR-4 ovarian, in the assay with CAKI-1 renal, with SF-268 CNS, in the assay with HOP-62 NSCLC and with SW-620 colon was more than 100 µM each time. Moreover, the TGI in the assay on RPMI-8226 leukemia, with K-562 leukemia, in the assay on UO-31 renal and in the assay on A549 NSCLC was more than 100 µM throughout.

With `Cc1ccc(-c2n[nH]c(=O)[nH]2)cc1[N+](=O)[O-]`, the TGI in the assay on M14 melanoma, in the assay on OVCAR-4 ovarian, with CAKI-1 renal, with SF-268 CNS, with HOP-62 NSCLC and in the assay on SW-620 colon was more than 100 µM throughout. Further, the TGI in the assay on RPMI-8226 leukemia, in the assay with K-562 leukemia, in the assay on UO-31 renal and in the assay on A549 NSCLC was more than 100 µM in each case.

On to `Cc1cc(=O)oc2cc(O)ccc12`, for which the TGI in the assay with OVCAR-4 ovarian, in the assay with CAKI-1 renal, with SF-268 CNS, in the assay with HOP-62 NSCLC, in the assay with SW-620 colon and in the assay with RPMI-8226 leukemia was more than 100 µM throughout. The TGI in the assay on K-562 leukemia, with UO-31 renal and in the assay on A549 NSCLC was more than 100 µM in each case.

Turning to `Cc1ccc(C(=O)/C(C#N)=C/Nc2c(C)n(C)n(-c3ccccc3)c2=O)cc1`, the TGI in the assay on M14 melanoma, with OVCAR-4 ovarian, in the assay with CAKI-1 renal, with SF-268 CNS, in the assay on HOP-62 NSCLC and in the assay with SW-620 colon was more than 100 µM in each case. Moreover, the TGI in the assay with RPMI-8226 leukemia, in the assay on K-562 leukemia, in the assay on UO-31 renal and in the assay with A549 NSCLC was more than 100 µM each time.

Usually GI50 stands for the concentration at which growth is held to half of that of the control. With `COc1cc(S(=O)(=O)Nc2ccc(C3=NNC(c4ccccc4)C3)cc2)ccc1F` (stereo not drawn), the GI50 in the assay on M14 melanoma is 27.6 µM; with OVCAR-4 ovarian it was 50.6 µM; with CAKI-1 renal it was 37.3 µM; with SF-268 CNS it was 65.1 µM; in the assay with HOP-62 NSCLC, 22.7 µM; in the assay on SW-620 colon it was 44.4 µM. In addition, the GI50 with RPMI-8226 leukemia is 21.6 µM; in the assay with K-562 leukemia it was 28.3 µM; with UO-31 renal, more than 100 µM; in the assay on A549 NSCLC, 53.9 µM. Moreover, the concentration for total growth inhibition (TGI) was more than 100 µM in the assay with M14 melanoma; more than 100 µM with OVCAR-4 ovarian; more than 100 µM with CAKI-1 renal; more than 100 µM with SF-268 CNS; 80.4 µM in the assay with HOP-62 NSCLC; more than 100 µM in the assay on SW-620 colon. The TGI in the assay on RPMI-8226 leukemia is 73.1 µM; in the assay with K-562 leukemia, more than 100 µM; in the assay with UO-31 renal, more than 100 µM; in the assay on A549 NSCLC, more than 100 µM.

For the molecule `O=S1(=O)c2ccccc2NC(=S)CC1c1ccccc1` (stereo not drawn), the total growth inhibition concentration (TGI) in the assay on M14 melanoma, in the assay on OVCAR-4 ovarian, in the assay with CAKI-1 renal, in the assay with SF-268 CNS, in the assay with HOP-62 NSCLC and with RPMI-8226 leukemia was more than 100 µM in each case. Moreover, the TGI with K-562 leukemia, in the assay on UO-31 renal and in the assay with A549 NSCLC was more than 100 µM in each case.

For the molecule `COc1cc2c(cc1OC)-c1c3c(cc4c1[C@@H](C2)N(C)CC4)OCO3`, the TGI amounted to 22.8 µM in the assay with OVCAR-4 ovarian; 51.4 µM with CAKI-1 renal; 38.2 µM in the assay with SF-268 CNS; 20.7 µM in the assay with HOP-62 NSCLC; 30.3 µM in the assay with SW-620 colon; 22.8 µM in the assay with RPMI-8226 leukemia. In addition, the values for the TGI with K-562 leukemia, in the assay on UO-31 renal and in the assay with A549 NSCLC were 33.9 µM, 49.3 µM and 32.2 µM, respectively.

Turning to `CC1(C)Oc2ccc(NC(=O)CCC(N)C(=O)O)cc2O1` (stereo not drawn), the concentration for total growth inhibition (TGI) in the assay on M14 melanoma, in the assay with OVCAR-4 ovarian, in the assay with CAKI-1 renal, in the assay on HOP-62 NSCLC, in the assay on SW-620 colon and with RPMI-8226 leukemia was more than 100 µM in each case. The TGI in the assay on K-562 leukemia, in the assay on UO-31 renal and in the assay on A549 NSCLC was more than 100 µM throughout.

For the molecule `C[C@]12CC[C@H](O)CC1=CC[C@@H]1[C@@H]2CC[C@]2(C)/C(=N/OCCN3CCCC3)CC[C@@H]12`, the TGI with OVCAR-4 ovarian was 36 µM; with CAKI-1 renal, 40.7 µM; in the assay on SF-268 CNS it was more than 100 µM; in the assay with HOP-62 NSCLC, 53.2 µM; with SW-620 colon it was 31.1 µM; in the assay on RPMI-8226 leukemia it was 38.4 µM. In addition, the TGI in the assay on K-562 leukemia stood at 21.6 µM; in the assay on UO-31 renal, 35.3 µM.

Regarding `CCOc1cc(C2CC(c3ccc(NS(=O)(=O)c4cc([N+](=O)[O-])ccc4C)cc3)=NN2)ccc1O` (stereo not drawn), the TGI in the assay on M14 melanoma is 43.8 µM; with OVCAR-4 ovarian, 71.4 µM; with CAKI-1 renal, more than 100 µM; in the assay on SF-268 CNS it was more than 100 µM; in the assay on SW-620 colon it was more than 100 µM; in the assay on RPMI-8226 leukemia, more than 100 µM. In addition, the TGI is 99 µM in the assay with K-562 leukemia, 84 µM in the assay on UO-31 renal and more than 100 µM with A549 NSCLC.
